Where a SMILES comes first, the peptide text is derived from it. [ ]: non-standard residue; d: D form. Phe(3,4-Cl2) = N[C@@H](Cc1ccc(Cl)c(Cl)c1)C(=O)O; Phe(4-Cl) = N[C@@H](Cc1ccc(Cl)cc1)C(=O)O; Phe(4-F) = N[C@@H](Cc1ccc(F)cc1)C(=O)O; hArg = N=C(N)NCCCC[C@H](N)C(=O)O; Cha = N[C@@H](CC1CCCCC1)C(=O)O; Phg = N[C@H](C(=O)O)c1ccccc1; Aib = CC(C)(N)C(=O)O; GABA = NCCCC(=O)O Some results are limits rather than exact numbers.

This test is described as follows: Evaluated for the activation of human thrombin receptor measured by platelet aggregation.

Regarding `CC(C)C[C@H](NC(=O)[C@H](CC(C)C)NC(=O)[C@H](Cc1ccccc1)NC(=O)[C@@H](N)CO)C(=O)N[C@@H](CCCN=C(N)N)C(=O)N[C@@H](CC(N)=O)C(=O)N1CCC[C@H]1C(N)=O` [1-{(S)-2-[(S)-2-((S)-2-{(S)-2-[(S)-2-((S)-2-Amino-3-hydroxy-propionylamino)-3-phenyl-propionylamino]-4-methyl-pentanoylamino}-4-methyl-pentanoylamino)-5-guanidino-pentanoylamino]-3-carbamoyl-propionyl}-pyrrolidine-2-carboxylic acid amide] (H-SFLLRNP-NH2), a half-maximal effect (EC50) was put at 0.5 µM.

Compound `CC(C)C[C@H](NC(=O)[C@@H](CC(C)C)NC(=O)[C@H](Cc1ccccc1)NC(=O)[C@@H](N)CO)C(=O)N[C@@H](CCCNC(=N)N)C(N)=O` [(R)-2-[(S)-2-((S)-2-Amino-3-hydroxy-propionylamino)-3-phenyl-propionylamino]-4-methyl-pentanoic acid [(S)-1-((S)-1-carbamoyl-4-guanidino-butylcarbamoyl)-3-methyl-butyl]-amide] returned an EC50 above 800 µM.

Consider `CC(=O)N[C@@H](Cc1ccccc1)C(=O)N[C@@H](CC(C)C)C(=O)N[C@@H](CC(C)C)C(=O)N[C@@H](CCCNC(=N)N)C(N)=O` [(S)-2-((S)-2-Acetylamino-3-phenyl-propionylamino)-4-methyl-pentanoic acid [(S)-1-((S)-1-carbamoyl-4-guanidino-butylcarbamoyl)-3-methyl-butyl]-amide] (Ac-FLLR-NH2), for which a half-maximal response (EC50) required 200 µM.

Turning to `CC(C)C[C@H](NC(=O)[C@H](CC(C)C)NC(=O)[C@@H](N)Cc1ccccc1)C(=O)N[C@@H](CCCNC(=N)N)C(N)=O` [(S)-2-((S)-2-Amino-3-phenyl-propionylamino)-4-methyl-pentanoic acid [(S)-1-((S)-1-carbamoyl-4-guanidino-butylcarbamoyl)-3-methyl-butyl]-amide] (H-FLLR-NH2), the EC50 is above 800 µM.

In turn, `CC(C)C[C@H](NC(=O)[C@H](CC(C)C)NC(=O)[C@H](Cc1ccc(F)cc1)NC(=O)[C@H](C)N)C(=O)N[C@@H](CCCCNC(=N)N)C(N)=O` [(S)-2-((S)-2-{(S)-2-[(S)-2-((S)-2-Amino-propionylamino)-3-(4-fluoro-phenyl)-propionylamino]-4-methyl-pentanoylamino}-4-methyl-pentanoylamino)-6-guanidino-hexanoic acid amide] (H-A[Phe(4-F)]LL[hArg]-NH2) displayed an EC50 of 0.12 µM.

The compound `CC(C)C[C@H](NC(=O)[C@H](CC(C)C)NC(=O)[C@H](Cc1ccccc1)NC(=O)[C@@H](N)CCCNC(=N)N)C(=O)N[C@@H](CCCNC(=N)N)C(N)=O` [(S)-2-Amino-5-guanidino-pentanoic acid ((S)-1-{(S)-1-[(S)-1-((S)-1-carbamoyl-4-guanidino-butylcarbamoyl)-3-methyl-butylcarbamoyl]-3-methyl-butylcarbamoyl}-2-phenyl-ethyl)-amide] (H-RFLLR-NH2) displayed a concentration giving a half-maximal response (EC50) above 1200 µM.

`NC(=O)[C@H](Cc1ccccc1)NC(=O)[C@@H](N)CO` [(S)-2-Amino-N-((S)-1-carbamoyl-2-phenyl-ethyl)-3-hydroxy-propionamide] gave an EC50 above 800 µM.

Turning to `CC(C)C[C@H](NC(=O)[C@H](CC(C)C)NC(=O)[C@@H](Cc1ccccc1)NC(=O)[C@@H](N)CO)C(=O)N[C@@H](CCCNC(=N)N)C(N)=O` [(S)-2-[(R)-2-((S)-2-Amino-3-hydroxy-propionylamino)-3-phenyl-propionylamino]-4-methyl-pentanoic acid [(S)-1-((S)-1-carbamoyl-4-guanidino-butylcarbamoyl)-3-methyl-butyl]-amide], the EC50 was above 800 µM.

In turn, `CC(C)C[C@H](NC(=O)[C@H](CC(C)C)NC(=O)[C@H](Cc1ccccc1)NC(=O)C(C)(C)N)C(=O)N[C@@H](CCCNC(=N)N)C(N)=O` [(S)-2-[(S)-2-(2-Amino-2-methyl-propionylamino)-3-phenyl-propionylamino]-4-methyl-pentanoic acid [(S)-1-((S)-1-carbamoyl-4-guanidino-butylcarbamoyl)-3-methyl-butyl]-amide] (H-[Aib]FLLR-NH2) displayed an EC50 of 415 µM.

Compound `CC(C)C[C@H](NC(=O)[C@H](CC(C)C)NC(=O)[C@H](Cc1ccccc1)NC(=O)CN)C(=O)N[C@@H](CCCNC(=N)N)C(N)=O` [(S)-2-[(S)-2-(2-Amino-acetylamino)-3-phenyl-propionylamino]-4-methyl-pentanoic acid [(S)-1-((S)-1-carbamoyl-4-guanidino-butylcarbamoyl)-3-methyl-butyl]-amide] (H-GFLLR-NH2) showed an EC50 of 1.2 µM.

`CC(C)C[C@H](NC(=O)[C@H](CC(C)C)NC(=O)[C@H](Cc1ccccc1)NC(=O)CCCN)C(=O)N[C@@H](CCCNC(=N)N)C(N)=O` [(S)-2-[(S)-2-(4-Amino-butyrylamino)-3-phenyl-propionylamino]-4-methyl-pentanoic acid [(S)-1-((S)-1-carbamoyl-4-guanidino-butylcarbamoyl)-3-methyl-butyl]-amide] (H-[GABA]FLLR-NH2) displayed an EC50 of 730 µM.

As for `CC(C)C[C@H](NC(=O)[C@H](CC(C)C)NC(=O)[C@H](Cc1ccccc1)NC(=O)[C@H](N)CO)C(=O)N[C@@H](CCCNC(=N)N)C(N)=O` [(S)-2-[(S)-2-((R)-2-Amino-3-hydroxy-propionylamino)-3-phenyl-propionylamino]-4-methyl-pentanoic acid [(S)-1-((S)-1-carbamoyl-4-guanidino-butylcarbamoyl)-3-methyl-butyl]-amide], it took 800 µM to reach a half-maximal effect (EC50).

Regarding `CC(C)C[C@H](NC(=O)[C@H](Cc1ccccc1)NC(=O)[C@@H](N)CO)C(=O)N[C@H](CC(C)C)C(=O)N[C@@H](CCCNC(=N)N)C(N)=O` [(S)-2-[(S)-2-((S)-2-Amino-3-hydroxy-propionylamino)-3-phenyl-propionylamino]-4-methyl-pentanoic acid [(R)-1-((S)-1-carbamoyl-4-guanidino-butylcarbamoyl)-3-methyl-butyl]-amide], the midpoint of the response, the EC50, lay at 500 µM.

`CC(C)C[C@H](NC(=O)[C@H](Cc1ccccc1)NC(=O)[C@@H](N)CO)C(=O)N[C@@H](CC(C)C)C(=O)N[C@H](CCCNC(=N)N)C(N)=O` [(S)-2-[(S)-2-((S)-2-Amino-3-hydroxy-propionylamino)-3-phenyl-propionylamino]-4-methyl-pentanoic acid [(S)-1-((R)-1-carbamoyl-4-guanidino-butylcarbamoyl)-3-methyl-butyl]-amide]: the EC50 amounted to 109 µM.

`CC(C)C[C@H](NC(=O)[C@H](CC(C)C)NC(=O)[C@H](Cc1ccccc1)NC(=O)[C@@H](N)CO)C(=O)N[C@@H](CCCNC(=N)N)C(N)=O` [(S)-2-[(S)-2-((S)-2-Amino-3-hydroxy-propionylamino)-3-phenyl-propionylamino]-4-methyl-pentanoic acid [(S)-1-((S)-1-carbamoyl-4-guanidino-butylcarbamoyl)-3-methyl-butyl]-amide] came in with an EC50 of 1 µM.

`CC(C)C[C@H](NC(=O)[C@H](Cc1ccccc1)NC(=O)[C@@H](N)CO)C(=O)N[C@@H](C)C(=O)N[C@@H](CCCNC(=N)N)C(N)=O` [(S)-2-[(S)-2-((S)-2-Amino-3-hydroxy-propionylamino)-3-phenyl-propionylamino]-4-methyl-pentanoic acid [(S)-1-((S)-1-carbamoyl-4-guanidino-butylcarbamoyl)-ethyl]-amide] (H-SFLAR-NH2) registered a 50% effective concentration (EC50) of 15 µM.

Compound `CC(C)C[C@H](NC(=O)[C@H](CC(C)C)NC(=O)[C@H](Cc1ccccc1)NC(=O)[C@@H](N)CO)C(=O)N[C@@H](C)C(N)=O` [(S)-2-[(S)-2-((S)-2-Amino-3-hydroxy-propionylamino)-3-phenyl-propionylamino]-4-methyl-pentanoic acid [(S)-1-((S)-1-carbamoyl-ethylcarbamoyl)-3-methyl-butyl]-amide] (H-SFLLA-NH2) showed an EC50 of 70 µM.

Compound `CC(C)C[C@H](NC(=O)[C@H](C)NC(=O)[C@@H](N)CO)C(=O)N[C@@H](CC(C)C)C(=O)N[C@@H](CCCNC(=N)N)C(N)=O` [(S)-2-[(S)-2-((S)-2-Amino-3-hydroxy-propionylamino)-propionylamino]-4-methyl-pentanoic acid [(S)-1-((S)-1-carbamoyl-4-guanidino-butylcarbamoyl)-3-methyl-butyl]-amide] (H-SALLR-NH2) gave an EC50 above 800 µM.

In turn, `CC(C)C[C@H](NC(=O)[C@H](CC(C)C)NC(=O)[C@@H](NC(=O)[C@H](C)N)c1ccccc1)C(=O)N[C@@H](CCCNC(=N)N)C(N)=O` [(S)-2-[(S)-2-((S)-2-Amino-propionylamino)-2-phenyl-acetylamino]-4-methyl-pentanoic acid [(S)-1-((S)-1-carbamoyl-4-guanidino-butylcarbamoyl)-3-methyl-butyl]-amide] (H-A[Phg]LLR-NH2) had an EC50 above 800 µM.

Compound `CC(C)C[C@H](NC(=O)[C@H](CC(C)C)NC(=O)[C@H](Cc1ccc(Cl)c(Cl)c1)NC(=O)[C@H](C)N)C(=O)N[C@@H](CCCNC(=N)N)C(N)=O` [(S)-2-[(S)-2-((S)-2-Amino-propionylamino)-3-(3,4-dichloro-phenyl)-propionylamino]-4-methyl-pentanoic acid [(S)-1-((S)-1-carbamoyl-4-guanidino-butylcarbamoyl)-3-methyl-butyl]-amide] (H-A[Phe(3,4-Cl2)]LLR-NH2) had an EC50 of 0.5 µM.

`CC(C)C[C@H](NC(=O)[C@H](CC(C)C)NC(=O)[C@H](Cc1ccc(Cl)cc1)NC(=O)[C@H](C)N)C(=O)N[C@@H](CCCNC(=N)N)C(N)=O` [(S)-2-[(S)-2-((S)-2-Amino-propionylamino)-3-(4-chloro-phenyl)-propionylamino]-4-methyl-pentanoic acid [(S)-1-((S)-1-carbamoyl-4-guanidino-butylcarbamoyl)-3-methyl-butyl]-amide] (H-A[Phe(4-Cl)]LLR-NH2) yielded an EC50 of 0.7 µM.

Regarding `CC(C)C[C@H](NC(=O)[C@H](Cc1ccc(F)cc1)NC(=O)[C@H](C)N)C(=O)N[C@@H](CC1CCCCC1)C(=O)N[C@@H](CCCNC(=N)N)C(N)=O` [(S)-2-[(S)-2-((S)-2-Amino-propionylamino)-3-(4-fluoro-phenyl)-propionylamino]-4-methyl-pentanoic acid [(S)-1-((S)-1-carbamoyl-4-guanidino-butylcarbamoyl)-2-cyclohexyl-ethyl]-amide] (H-A[Phe(4-F)]L[Cha]R-NH2), the EC50 came out at 0.14 µM.

Source of the values: BindingDB's records for doi:10.1021/jm00020a029 (Merck Research Laboratories, 1995).
